Molecules are shown by their SMILES. Values joined by “and” are separate entries in the source; they are usually repeats but may differ in a detail not shown here. Identical values can stand only once.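 Protocol summary: plate cells (96-well), add compound at 5 concentrations, incubate 48 h, interpolate endpoints linearly. GI50 = concentration required for 50% inhibition of growth. TGI marks complete inhibition of growth.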

From PubChem BioAssay (NCI) come the findings set out here.

What all share (assay): inhibition of tumour cell growth, NCI panel, 48 h
In test [1] the test system is K-562 leukemia.
The test system of test [2] is SF-268 CNS.
Test [3] has as its system SK-MEL-5 melanoma.
Test [4] concerns HCT-15 colon.
In test [5] the test system is U251 CNS.
In test [6] the test system is SNB-75 CNS.
Test [7] deals with DU-145 prostate.
Test [8] concerns IGROV1 ovarian.
In test [9] the test system is SK-MEL-28 melanoma.
Test [10] relates to A498 renal.

Consider `COc1c(B(O)O)cccc1-c1nc2c(F)cc3n[nH]c(C)c3c2c2c1CCCC2`, for which the GI50 is 1.68 µM in test [1]; 0.666 µM in [2]; 0.932 µM in test [3]; 1.49 µM in test [4]; 1.12 µM in test [5]; 0.0152 µM in test [6]. Also, the GI50 is 1.42 µM in test [7], 1.12 µM in [8] and 2.1 µM in test [9]. The TGI in [1] is greater than 50 µM; in test [2], 49.3 µM; in [3] it was 2.96 µM; in [4], greater than 50 µM; in [5] it was greater than 50 µM; in test [6], 0.168 µM. For the same molecule, the TGI is greater than 50 µM in test [7], greater than 50 µM in test [8] and greater than 38.8 µM in [9].

For `O=C(O)c1ccc(/C=N/N=C2c3ccccc3-c3ccccc32)cc1`, the TGI in test [1] is greater than 100 µM; in test [2], 89.3 µM; in test [3], greater than 100 µM; in test [10], greater than 100 µM; in test [4], greater than 100 µM; in test [5] it was greater than 100 µM. The TGI in [7], in test [8] and in test [9] was greater than 100 µM throughout.

Regarding `Cc1c(C(=O)c2ccccc2)[n+](=O)c2cc(F)c(F)cc2n1[O-]`, the GI50 in [1] was 1.97 µM; in [2], 1.93 µM; in test [3], 2.03 µM; in test [10], 12.1 µM; in test [4] it was 0.511 µM; in test [5], 1.71 µM. The GI50 in test [7] is 10.8 µM; in test [8], 1.32 µM. The TGI is greater than 100 µM in test [1]; 4.12 µM in [2]; 4.24 µM in test [3]; 24.9 µM in [10]; 1.64 µM in [4]; 3.08 µM in [5]. Further, the results for the TGI in test [7] and in test [8] were 24.5 µM and 5.33 µM, respectively.

With `CO/C(=C1/NC(=O)C(Cc2ccc(O)c(Br)c2)N(C)C(=O)C(C)NC(=O)CCC/C=C(\C)CCC(C)OC1=O)c1ccccc1` (stereo not given), the GI50 in test [1] was 0.335 µM; in [2], 0.0267 µM; in test [3], 0.0327 µM; in test [10] it was 0.0174 µM; in test [4], 0.0632 µM; in [5], 0.0199 µM. Moreover, the GI50 in test [7] is less than 0.0185 µM; in test [8], 0.0199 µM; in [9] it was less than 0.0134 µM. In addition, the TGI in test [1] is greater than 100 µM; in test [2], 0.0767 µM; in test [3], 0.387 µM; in test [10] it was 0.0357 µM; in [4], 13.4 µM; in test [5], 0.0909 µM. Also, the TGI in test [7] turned out to be 1.73 µM; in test [8], 0.0465 µM; in [9], 0.0419 µM.

Turning to `CC1(C)C(CC(=O)O)CCCC1CC(=O)O` (stereo not given), the TGI in test [1], in test [3], in test [10], in [4], in test [5] and in [7] was greater than 100 µM throughout. Also, the TGI in test [8] and in test [9] was greater than 100 µM in each case.

Take `COc1ccc(/C=C/C(=O)/C=C(O)/C=C/c2ccc(OC)c(OC)c2)cc1OC`: the GI50 in test [1] was 1.16 µM; in test [2], 4.77 µM; in test [3], 3.01 µM; in test [4] it was 3.76 µM; in [5], 2.99 µM; in [6] it was 16.5 µM. The figures for the GI50 in test [7], in [8] and in test [9] were 3.72 µM, 3.43 µM and 18.4 µM, respectively. The TGI in test [1] is greater than 100 µM; in [2], greater than 100 µM; in [3], 12.7 µM; in test [4] it was greater than 100 µM; in test [5], greater than 100 µM; in test [6], 69 µM. Also, the results for the TGI in test [7], in test [8] and in test [9] were greater than 100 µM, greater than 100 µM and 44 µM, respectively.

Consider `NC(=O)c1csc(-c2ccc(CO)o2)n1`, for which the TGI in test [1], in test [2], in [3], in test [10], in [4] and in [5] was greater than 100 µM in each case. Further, the TGI in test [7], in test [8] and in test [9] was greater than 100 µM throughout.

Turning to `CN1CCN(CCC=C2c3ccccc3Sc3ccc(S(=O)(=O)N(C)C)cc32)CC1`, the GI50 was 2.21 µM and 1.63 µM in [1]; 1.58 µM in test [3]; 2.19 µM and 3.51 µM in [10]; 3.3 µM and 2.52 µM in test [4]; 13 µM and 12.6 µM in test [7]; 5.13 µM and 8.26 µM in test [8]. Also, in [9], the GI50 is 1.8 µM and 1.77 µM. Besides, the TGI in [1] was 4.72 µM; in test [3] it was 2.95 µM and 3.02 µM; in [10], 13.2 µM and 17 µM; in test [4], > 100 µM and 10.3 µM; in test [7], > 100 µM and 26.9 µM; in [8] it was 23.3 µM and 25.7 µM. In addition, the TGI in test [9] was 3.22 µM and 3.35 µM.
